Values of other authors, collected in patent publication US9573873B2, “Catalytic method for dibenzocycloheptane synthesis and allocolchicinoid synthesis” (UNIVERSITY OF WINDSOR, priority 2014, dated 2017).

Conditions: Phase 2 clinical testing; background statement

Question: Which cardiotoxicity does the source give for COc1cc2c(c(OC)c1OC)-c1ccc(OP(=O)(O)O)cc1[C@@H](NC(C)=O)CC2 [ZD 6126, N-Acetylcolchicinol dihydrogen phosphate] here?
Answer: failed in Phase 2 clinical testing because of this cardiotoxicity
